Entries after “also recorded” stand apart in the source; their conditions may differ.
How the values were obtained:
[1] = tested on: GABAA receptors in hippocampal pyramidal cells from α2(H101R) mice; experiment: Patch-clamp GABA responses in cultured hippocampal pyramidal cells, α2(H101R); type: cell-based, mouse
Experimental: (§1) FIGS. 2A-C. […] The holding potential in the patch-clamp analysis was −60 mV the chloride concentration symmetrical. GABA was applied for 5 sec. Hippocampal neurons from E16.5 embryos were cultured for 10-14 days.

[2] = molecular target: diazepam-insensitive [3H]Ro15-4513 binding sites (α4 and α6 GABAA receptors); experiment: [3H]Ro15-4513 binding to diazepam-insensitive sites, wild type mouse brain; conditions: n=3
[3] = molecular target: diazepam-insensitive [3H]Ro15-4513 binding sites in α3(H126R) mice; experiment: [3H]Ro15-4513 binding to diazepam-insensitive sites, α3(H126R) mouse brain; conditions: n=3
[4] = tested on: GABAA receptors in hippocampal pyramidal cells from wild type mice; experiment: Patch-clamp GABA responses in cultured hippocampal pyramidal cells, wild type; type: cell-based, mouse
Experimental: as §1

[5] = molecular target: diazepam-insensitive [3H]Ro15-4513 binding sites in α2(H101R) mice; experiment: [3H]Ro15-4513 binding to diazepam-insensitive sites, α2(H101R) mouse brain; conditions: n=3
[6] = tested on: recombinant α2(H101R)β3γ2 receptors; conditions: recombinant α2(H101R)β3γ2 in HEK-293 cells; cited from earlier work
[7] = molecular target: T1, α3 subunits from α3(H126R) mice (Mus musculus, UniProt P22723+P26049, H154R); experiment: Diazepam affinity by [3H]Ro15-4513 binding after immunoprecipitation with α3 subunit-specific antiserum; conditions: immunoprecipitated
T1 construct: from tissue; host or cells: brain of α3(H126R) knock-in mice
T1 sequence (P26049 29-492 H154R): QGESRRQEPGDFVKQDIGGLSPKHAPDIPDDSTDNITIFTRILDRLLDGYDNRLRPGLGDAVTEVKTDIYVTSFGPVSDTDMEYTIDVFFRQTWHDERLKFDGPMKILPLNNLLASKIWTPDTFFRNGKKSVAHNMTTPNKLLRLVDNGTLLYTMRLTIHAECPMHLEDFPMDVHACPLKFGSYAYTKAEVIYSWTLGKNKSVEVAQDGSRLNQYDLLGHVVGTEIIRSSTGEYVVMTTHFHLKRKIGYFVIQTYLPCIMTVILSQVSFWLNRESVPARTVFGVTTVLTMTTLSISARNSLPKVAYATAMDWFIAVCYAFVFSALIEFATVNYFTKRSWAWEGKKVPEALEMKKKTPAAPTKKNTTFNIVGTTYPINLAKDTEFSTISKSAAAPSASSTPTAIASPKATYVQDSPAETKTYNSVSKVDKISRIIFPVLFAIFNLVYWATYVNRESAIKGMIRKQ
T1 sequence (P22723 39-474): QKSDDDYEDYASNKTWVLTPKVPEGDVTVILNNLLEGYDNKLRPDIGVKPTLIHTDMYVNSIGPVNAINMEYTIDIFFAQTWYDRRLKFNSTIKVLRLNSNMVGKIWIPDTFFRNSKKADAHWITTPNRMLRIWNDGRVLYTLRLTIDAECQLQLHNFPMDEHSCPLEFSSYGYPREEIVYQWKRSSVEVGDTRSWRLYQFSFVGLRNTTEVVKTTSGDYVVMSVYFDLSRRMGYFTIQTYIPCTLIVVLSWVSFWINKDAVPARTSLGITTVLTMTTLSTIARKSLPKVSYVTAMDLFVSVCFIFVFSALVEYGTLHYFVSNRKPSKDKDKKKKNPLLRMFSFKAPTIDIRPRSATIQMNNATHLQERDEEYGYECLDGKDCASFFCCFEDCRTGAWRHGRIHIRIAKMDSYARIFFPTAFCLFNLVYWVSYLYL
T1 sequence (P63080 26-473 partner): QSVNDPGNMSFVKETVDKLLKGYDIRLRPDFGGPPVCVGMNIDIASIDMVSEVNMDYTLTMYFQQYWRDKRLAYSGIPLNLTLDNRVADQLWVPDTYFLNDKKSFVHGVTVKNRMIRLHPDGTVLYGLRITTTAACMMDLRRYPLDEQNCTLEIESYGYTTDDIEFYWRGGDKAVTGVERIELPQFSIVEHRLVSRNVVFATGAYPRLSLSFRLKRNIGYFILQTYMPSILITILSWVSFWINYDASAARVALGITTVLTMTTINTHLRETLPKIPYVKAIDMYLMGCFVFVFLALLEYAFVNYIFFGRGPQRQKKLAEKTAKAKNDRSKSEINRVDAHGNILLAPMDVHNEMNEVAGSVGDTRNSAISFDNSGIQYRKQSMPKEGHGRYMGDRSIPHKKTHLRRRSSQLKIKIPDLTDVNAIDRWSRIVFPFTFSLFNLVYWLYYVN
Source text: (§2) To distinguish between the pharmacology of α2 and α3 receptor subtypes, two mouse lines were generated in which a point mutation was introduced into homologous positions of the α2 subunit gene [α2(H101R)]

[8] = tested on: wild type, α2(H101R) and α3(H126R) mice; experiment: Pentylenetetrazole test; type: in vivo, mouse; conditions: pentylenetetrazole 120 mg/kg ip, diazepam 3, 10, 30 mg/kg p.o.
Experimental: (§3) V, vehicle. […] 31:733. Locomotor activity was automatically recorded for 30 min.
Following pentylenetetrazole treatment (120 mg/kg ip), occurrence and/or latency to tonic seizures was recorded for a maximum of 10 minutes in wild type and mutant mice. […].

[9] = tested on: wild type, α2(H101R) and α3(H126R) mice; experiment: Locomotor activity; type: in vivo, mouse; conditions: diazepam 3, 10, 30 mg/kg p.o., 30 min prior
Experimental: as §3

[10] = tested on: wild type and α1-GABAA receptor (H101R) mice; experiment: Withdrawal after chronic diazepam and flumazenil administration; conditions: chronic diazepam then flumazenil
[11] = molecular target: T2, α2 subunits from α2(H101R) mice (Mus musculus, UniProt P22723+P26048, H129R); experiment: Diazepam affinity by [3H]Ro15-4513 binding after immunoprecipitation with α2 subunit-specific antiserum; conditions: immunoprecipitated
T2 construct: from tissue; host or cells: brain of α2(H101R) knock-in mice
T2 sequence (P26048 29-451 H129R): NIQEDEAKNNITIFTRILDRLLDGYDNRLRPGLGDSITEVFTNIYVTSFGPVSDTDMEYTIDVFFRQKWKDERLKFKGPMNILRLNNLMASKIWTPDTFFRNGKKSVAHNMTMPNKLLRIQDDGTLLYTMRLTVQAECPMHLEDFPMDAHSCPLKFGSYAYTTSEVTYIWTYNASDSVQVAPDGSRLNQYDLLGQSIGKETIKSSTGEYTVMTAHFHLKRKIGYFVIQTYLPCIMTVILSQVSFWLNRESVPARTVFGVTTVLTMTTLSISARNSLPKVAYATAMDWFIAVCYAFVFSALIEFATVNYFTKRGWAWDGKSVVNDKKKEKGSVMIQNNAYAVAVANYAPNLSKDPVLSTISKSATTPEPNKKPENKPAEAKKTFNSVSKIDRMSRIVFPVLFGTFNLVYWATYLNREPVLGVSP
T2 sequence (P22723 39-474): as the sequence (P22723 39-474) above
T2 sequence (P63080 26-473 partner): as the sequence (P63080 26-473 partner) above
Source text: as §2

[12] = tested on: wild type, α2(H101R) and α3(H126R) mice; experiment: Light/dark choice test; type: in vivo, mouse; conditions: for time in the lit area: sodium phenobarbital 15 mg/kg s.c., n=6-8
Experimental: (§4) FIG. 4A: Light/dark choice test. […] FIGS. 4B-C: Elevated plus-maze. […] FIG. 4D: Light/dark choice test. […] FIGS. 4E-F: Elevated plus-maze. […] Results are given as means ±S.E.M.+, P<0.05;++, P<0.01;+++P<0.001 (Dunnett's or Fisher's pair-wise post-hoc comparisons or Fisher's exact tests). […] The light-dark choice test was carried out as described infra with an illumination of 500 lux. […] The elevated plus-maze was performed as described infra under an indirect dim light illumination (<10 lux).
In a chamber containing an interconnected dark and lit (500 lux) box, the behavior of wild-type and mutant mice was tested for 5 min following the first entry into the dark compartment. […] The time spent in the lit box was recorded.
(§5) Female wild-type and mutant mice were raised in the test rooms and behaviorally tested during the dark period of the 1 2-hr light/dark cycle.

[13] = tested on: wild type, α2(H101R) and α3(H126R) mice; experiment: Elevated plus-maze; type: in vivo, mouse; conditions: diazepam 2 mg/kg p.o.
Experimental: as §4
Mice were placed on an elevated crossbar with two walled and two open arms under indirect dim illumination. […] The time spent on the open arms and the number of open arm entries was recorded for 5 minutes.
as §5

Compound: CCOC(=O)c1ncn2c1CN(C)C(=O)c1cc(N=[N+]=[N-])ccc1-2 [Ro15-4513]
- modulation of GABA response by Ro15-4513 (agonistic response) ([1]; Ro15-4513 1μM, n=23): 11.7±7.5%
- Kd ([2]; α2 wild type controls): 4.3 ± 0.8 nM
- Kd ([2]; α3 wild type controls): 4.9 ± 2.1 nM
- Kd [3]: 6.5 ± 1.6 nM
- modulation of GABA response by Ro15-4513 (inverse agonistic action) ([4]; Ro15-4513 1μM, n=13): −39±5.2%
- Kd [5]: 8 ± 1.3 nM
- efficacy of Ro15-4513 [6]: from inverse agonism to agonism

Compound: CN1C(=O)CN=C(c2ccccc2)c2cc(Cl)ccc21 [diazepam]
- potentiation of GABA response by diazepam ([1]; diazepam 1μM, GABA 3 μM, n=29): 17.6±4.5%
- decrease in the affinity for diazepam [7]: more than 1,000 fold
- potentiation of GABA response by diazepam ([4]; diazepam 1μM, GABA 3 μM, n=18): 48.1±7.9%
- percentage of mice developing tonic convulsions (anticonvulsant action) ([8]; wild type mice): Dose-dependent decrease of the percentage of mice developing tonic convulsions
- percentage of mice developing tonic convulsions (anticonvulsant action) ([8]; α2(H101R) mice): not impaired; also recorded: Dose-dependent decrease of the percentage of mice developing tonic convulsions
- percentage of mice developing tonic convulsions (anticonvulsant action) ([8]; α3(H126R) mice): not impaired; also recorded: Dose-dependent decrease of the percentage of mice developing tonic convulsions
- locomotor activity (sedative action) [9]: Dose-dependent inhibition of locomotor activity
- withdrawal symptoms (locomotor activity) ([10]; wild type mice): exhibited withdrawal symptoms
- withdrawal symptoms (locomotor activity) ([10]; α1-GABAA receptor (H101R) mice): greatly reduced
- decrease in the affinity for diazepam [11]: more than 1,000 fold
- time spent in the lit area ([12]; wild type mice, diazepam 0.5, 1, 2 mg/kg p.o.): dose-dependently increased the time spent in the lit area
- time spent in the lit area ([12]; α2(H101R) mice, diazepam up to 2 mg/kg p.o.): did not increase the time spent in the lit area
- time spent in the lit area ([12]; α3(H126R) mice, diazepam 0.5, 1, 2 mg/kg p.o.): Dose-dependent increase in the time spent in the lit area
- entries on the open arms ([13]; wild type mice): increased
- percentage of time spent on the open arms ([13]; wild type mice): increased
- entries on the open arms ([13]; α2(H101R) mice): failed to increase
- percentage of time spent on the open arms ([13]; α2(H101R) mice): failed to increase
- entries on the open arms ([13]; α3(H126R) mice): increased
- percentage of time spent on the open arms ([13]; α3(H126R) mice): increased

Compound: CCC1(c2ccccc2)C(=O)NC(=O)NC1=O [phenobarbital, Sodium phenobarbital]
- time in the lit area ([12]; wild type mice): 111.75 s
- time in the lit area ([12]; α2(H101R) mice): 110.9 s
